Test results reported in paper PMC2430599, “Solution Structure and Sugar-Binding Mechanism of Mouse Latrophilin-1 RBL: a 7TM Receptor-Attached Lectin-Like Domain” (Structure(London, England:1993), 2008).
Residue numbers refer to the chain shown, from its start. “And” between values parts separate entries of the source, which are not always exact repeats. Equal entries are not always repeated.

Columns and labels:
[1] = molecular target: T1, RBL domain of mouse Lat-1 (WT) (Mus musculus, UniProt Q80TR1); assay: NMR chemical shift perturbation titration of carbohydrates, wild-type RBL; format: binding; conditions: for Kd, WT / Kd: NMR titration, 30°C, 20 mM sodium phosphate pH 7.0, error from curve fitting, NBD = no binding detected (up to 100 mM compound)
T1 construct: Analytical ultracentrifugation experiments on RBL (residues 30–134) and larger constructs indicated a monomer in solution; α-factor signal propeptide (secretion leader) (N, cleaved yes); made in house; host or cells: Pichia pastoris strain X-33
T1 sequence (Q80TR1 30-134): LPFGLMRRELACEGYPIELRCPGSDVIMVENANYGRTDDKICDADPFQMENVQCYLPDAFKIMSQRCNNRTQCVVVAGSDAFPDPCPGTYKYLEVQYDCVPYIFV

RBL E42R = molecular target: T2, RBL E42R (Mus musculus, UniProt Q80TR1, E42R); assay: NMR titration, RBL E42R mutant; conditions: NBD = no binding detected
T2 construct: Analytical ultracentrifugation experiments on RBL (residues 30–134) and larger constructs indicated a monomer in solution; α-factor signal propeptide (secretion leader) (N, cleaved yes); made in house; host or cells: Pichia pastoris strain X-33
T2 sequence (Q80TR1 30-134 E42R): T1 sequence (Q80TR1 30-134) with E13R

RBL E42A = molecular target: T3, RBL E42A (Mus musculus, UniProt Q80TR1, E42A); assay: NMR titration, RBL E42A mutant; conditions: NBD = no binding detected
T3 construct: Analytical ultracentrifugation experiments on RBL (residues 30–134) and larger constructs indicated a monomer in solution; α-factor signal propeptide (secretion leader) (N, cleaved yes); made in house; host or cells: Pichia pastoris strain X-33
T3 sequence (Q80TR1 30-134 E42A): T1 sequence (Q80TR1 30-134) with E13A

RBL K120R = molecular target: T4, RBL K120R (Mus musculus, UniProt Q80TR1, K120R); assay: NMR titration, RBL K120R mutant; conditions: NBD = no binding detected
T4 construct: Analytical ultracentrifugation experiments on RBL (residues 30–134) and larger constructs indicated a monomer in solution; α-factor signal propeptide (secretion leader) (N, cleaved yes); made in house; host or cells: Pichia pastoris strain X-33
T4 sequence (Q80TR1 30-134 K120R): T1 sequence (Q80TR1 30-134) with K91R

RBL K120A = molecular target: T5, RBL K120A (Mus musculus, UniProt Q80TR1, K120A); assay: NMR titration, RBL K120A mutant; conditions: NBD = no binding detected
T5 construct: Analytical ultracentrifugation experiments on RBL (residues 30–134) and larger constructs indicated a monomer in solution; α-factor signal propeptide (secretion leader) (N, cleaved yes); made in house; host or cells: Pichia pastoris strain X-33
T5 sequence (Q80TR1 30-134 K120A): T1 sequence (Q80TR1 30-134) with K91A

SUEL = SUEL (Heliocidaris crassispina, UniProt P22031); assay: biochemical; format: binding, sea urchin
[2] = molecular target: T6, RBL domain of mouse Lat-1 (Mus musculus, UniProt Q80TR1); assay: Printed glycan array chip screen with AlexaFluor 488 labelled RBL (Consortium for Functional Glycomics); format: binding
T6 construct: Analytical ultracentrifugation experiments on RBL (residues 30–134) and larger constructs indicated a monomer in solution; α-factor signal propeptide (secretion leader) (N, cleaved yes); made in house; host or cells: Pichia pastoris strain X-33
T6 sequence (Q80TR1 30-134): T1 sequence (Q80TR1 30-134)

Chain of SUEL (P22031 whole entry, the tested form may be a part): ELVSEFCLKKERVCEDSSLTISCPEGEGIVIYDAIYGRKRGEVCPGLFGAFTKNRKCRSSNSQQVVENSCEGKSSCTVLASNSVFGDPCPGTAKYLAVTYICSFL

Molecule	Kd, WT [1]	Kd [1]	other results
OC1OC[C@@H](O)[C@@H](O)[C@@H]1O (stereo partly drawn) [D-arabinose]	NBD		
C[C@H]1OC(O)[C@H](O)[C@@H](O)[C@H]1O (stereo partly drawn) [D-fucose]		61 ± 1.3 mM	
OC[C@H]1OC(O)[C@H](O)[C@@H](O)[C@H]1O (stereo partly drawn) [D-galactose]		33.6 ± 0.4 mM	Kd, E42R (RBL E42R): NBD; Kd, E42A (RBL E42A): NBD; Kd, K120R (RBL K120R): NBD; Kd, K120A (RBL K120A): NBD
OC[C@H]1OC(O)[C@H](O)[C@@H](O)[C@@H]1O (stereo partly drawn) [D-glucose]	NBD		
O[C@@H]1[C@@H](O)[C@@H](O)CO[C@H]1O [L-arabinose]		75 ± 1.3 mM	
C[C@@H]1OC(O)[C@H](O)[C@H](O)[C@H]1O (stereo partly drawn) [L-rhamnose]		1.8 mM and 1.78 mM	Kd (SUEL): 0.1 to 0.2 mM; affinity of SUEL relative to Lat-1 RBL (times tighter) (SUEL; SUEL Kd vs Lat-1 RBL Kd 1.8 mM, ref Hosono et al., 1999): 10; Kd, E42R (RBL E42R): NBD; Kd, E42A (RBL E42A): NBD; Kd, K120R (RBL K120R): NBD; Kd, K120A (RBL K120A): NBD
OC[C@H]1O[C@H](OCC2O[C@@H](O)[C@H](O)[C@@H](O)[C@@H]2O)[C@H](O)[C@@H](O)[C@H]1O (stereo partly shown) [Melibiose]		33.3 ± 0.5 mM	
C[C@@H]1O[C@@H](O[C@H]2C[C@@H](O)[C@]3(CO)[C@H]4[C@H](O)C[C@]5(C)[C@@H](C6=CC(=O)OC6)CC[C@]5(O)[C@@H]4CC[C@]3(O)C2)[C@H](O)[C@H](O)[C@H]1O [Ouabain]		2.21 ± 0.03 mM	
Galα1-3(Fucα1-2)Galβ1-3GlcNAcβ-Sp0 [glycan #95]			binding in NMR titration compared to galactose ([1]; NMR titration with glycan as ligand): did not show stronger or altered binding compared to galactose; binding on immobilized glycan array ([2]; fluorescently labeled RBL, glycan array version 3.0, 320 glycan targets, triplicate): any interaction; level of fluorescent signal relative to what is commonly found in this assay ([2]; glycan array version 3.0): approximately 1/20

The next lines start with results.

Kd, WT [1]	Molecule	Kd [1]	other results
NBD	O=C[C@H](O)[C@@H](O)[C@H](O)[C@H](O)C(=O)O [D-glucuronic acid]		
NBD	OC[C@H]1OC(O)[C@@H](O)[C@@H](O)[C@@H]1O (stereo partly drawn) [D-mannose]		
NBD ^c	C[C@H](O)[C@@H](O)[C@@H](O)[C@H](O)C=O [L-fucose]		
NBD	CC(=O)N[C@@H]1[C@@H](O)[C@@H](O)[C@@H](CO)O[C@@H]1O [N-acetyl galactosamine]		
NBD	CC(=O)N[C@@H]1[C@@H](O)[C@H](O)[C@@H](CO)O[C@H]1O [N-acetyl glucosamine]		
NBD	CC(=O)N[C@H]1[C@H]([C@H](O)[C@H](O)CO)OC(O)(C(=O)O)C[C@@H]1O (stereo partly shown) [N-acetyl neuraminic acid]		
NBD	Heparin		
